Measured values reported in patent publication US10988462B2, “Pyrazole compounds substituted with heteroaryl and pharmaceutical use thereof” (Japan Tobacco Inc., priority 2018, dated 2021).

Target: human SGLT1 (Homo sapiens (Human), UniProt P13866)
Assay: SGLT1 inhibitory activity: intracellular uptake of 14C-AMG in human SGLT1-stably-expressing CHO-K1 cell line
Format: cell-based
Conditions: human SGLT1-stably-expressing CHO-K1 cells, 14C-AMG uptake; read-out: hSGLT1 IC50
Procedure: SGLT1 inhibitory activities of test compounds (IC50 values) were calculated based on the amount of intracellular uptake of labelled α-methyl-D-glucopyranoside (^14C-AMG) transported by SGLT1.
1) Formation of Human SGLT1-Expressing Plasmid
A DNA fragment containing human SGLT1 was amplified by PCR (Polymerase Chain Reaction) using pCMV6-hSGLT1 (OriGene) as a template. In the human SGLT1, NheI recognition and cleavage sequence was added to the upstream of Kozac consensus sequence derived from a vector, and a stop codon, TAG, and SalI recognition and cleavage sequence were added to the immediate downstream of the protein-translating region of human SGLT1. The purified DNA fragment was cleaved by restriction enzymes NheI and SalI, followed by ligation with pcDNA3.1 (+) which was cleaved by NheI and XhoI, thereby forming human SGLT1-expressing plasmid, pcDNA-hSGLT1. The nucleic acid sequence of human SGLT1 inserted into a vector was completely identical to the protein-translated region of human SGLT1 sequence (Accession number NM_000343) registered in GenBank, and the sequence of the portion connected to the vector was as expected.
2) Establishment of Human SGLT1-Stably-Expressing Cell Lines
Human SGLT-expressing plasmid, pcDNA-hSGLT1, was transfected into each CHO-K1 cell by Lipofectamine 2000 (Invitrogen) and cultured in the presence of G418 (Nacalai Tesque) to select drug-resistant cell lines. A cell line having the highest ratio (S/B ratio) of the amount of intracellular uptake of ^14C-AMG per cell to the amount of intracellular uptake of ^14C-AMG after treatment with a SGLT inhibitor, phlorizin, was selected as a human SGLT1-stably-expressing cell line from the drug-resistant cell lines.
3) Assessment of SGLT1 Inhibitory Activity
Human SGLT1-stably-expressing cell lines were seeded at 5×10^4 cells/well on BioCoat™ Poly-D-Lysine 96 well plate with Lid (Becton, Dickinson and Company) and cultured at 37° C. under 5% CO2 overnight. The medium was replaced with 100 μL/well of Na(−) buffer (140 mM choline chloride, 2 mM KCl, 1 mM MgCl2, 1 mM CaCl2, 10 mM HEPES, 5 mM Tris, pH 7.4), and then the mixture was let stand at 37° C. under 5% CO2 for 20 minutes. After removal of Na(−) buffer, thereto was added 40 μL/well of a test compound solution prepared with Na(+) buffer (140 mM NaCl, 2 mM KCl, 1 mM MgCl2, 1 mM CaCl2, 10 mM HEPES, 5 mM Tris, pH 7.4) comprising BSA. Then, thereto was added 40 μL/well of Na(+) buffer comprising 8 kBq of ^14C-AMG and 2 mM AMG, and the mixture was mixed well. For a blank, 40 μL/well of Na(−) buffer comprising BSA was added, and in addition, 40 μL/well of Na(−) buffer comprising 8 kBq of ^14C-AMG and 2 mM AMG was added, and the mixture was mixed well. After incubation by being let stand for 1 hour at 37° C. under 5% CO2, cells were washed twice with 100 μL/well of ice-cooled wash buffer (100 mM AMG, 140 mM choline chloride, 2 mM KCl, 1 mM MgCl2, 1 mM CaCl2, 10 mM HEPES, 5 mM Tris, pH 7.4) to terminate the reaction. A cell lysate was prepared by addition of 50 μL/well of 0.2N aqueous NaOH solution. In the assessment for the uptake ability of ^14C-AMG, the total amount of the cell lysate was transferred to OptiPlate 96 (Perkin-Elmer) with 100 μL/well of MicroScint-40 (Perkin-Elmer) dispensed and ^14C of CPM was measured with TOPCOUNT NXT (Perkin-Elmer).
Data was calculated by deducting the average value of CPM for blank well from the average value of CPM for each well treated. An inhibition rate for each test compound in each concentration was calculated from the following equation: [(A−B)/A]×100 wherein A is data for a solvent control and B is data for treatment with each test compound.

Sequence of human SGLT1 (P13866 whole entry): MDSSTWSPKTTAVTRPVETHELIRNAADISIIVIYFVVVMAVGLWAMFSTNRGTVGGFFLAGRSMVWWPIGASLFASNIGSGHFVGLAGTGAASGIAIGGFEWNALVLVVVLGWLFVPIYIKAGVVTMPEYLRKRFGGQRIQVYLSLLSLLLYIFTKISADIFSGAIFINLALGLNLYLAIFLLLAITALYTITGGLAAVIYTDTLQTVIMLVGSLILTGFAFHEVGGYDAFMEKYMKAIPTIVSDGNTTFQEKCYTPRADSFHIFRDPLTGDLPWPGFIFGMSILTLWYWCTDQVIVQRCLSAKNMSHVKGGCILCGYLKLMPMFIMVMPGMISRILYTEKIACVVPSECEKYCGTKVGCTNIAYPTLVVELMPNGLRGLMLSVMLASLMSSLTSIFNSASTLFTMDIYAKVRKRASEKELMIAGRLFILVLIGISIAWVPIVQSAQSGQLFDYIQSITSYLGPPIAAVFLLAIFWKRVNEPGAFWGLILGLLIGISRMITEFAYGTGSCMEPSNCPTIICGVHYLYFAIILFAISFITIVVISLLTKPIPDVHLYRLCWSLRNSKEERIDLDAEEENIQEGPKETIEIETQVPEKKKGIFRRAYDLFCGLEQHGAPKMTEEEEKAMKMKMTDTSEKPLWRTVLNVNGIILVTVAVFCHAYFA

Row | SMILES | IC50 [nM]
1 | C[C@H]1C(=O)NC[C@@H]1C(=O)Nc1cc(-c2cc(F)cc(OC(C)(C)C(F)(F)F)c2)n(-c2cnc(C(F)(F)F)nc2)n1 [Example 1, (3R,4R)—N-(5-(3-fluoro-5-((1,1,1-trifluoro-2-methylpropan-2-yl)oxy)phenyl)-1-(2-(trifluoromethyl)pyrimidin-5-yl)-1H-pyrazol-3-yl)-4-methyl-5-oxopyrrolidine-3-carboxamide] | 1.9
2 | C[C@H]1C(=O)NC[C@@H]1C(=O)Nc1cc(-c2cc(F)cc(OC(F)(F)F)c2)n(-c2cncc(F)c2)n1 [Example 2, (3R,4R)—N-(5-(3-fluoro-5-(trifluoromethoxy)phenyl)-1-(5-fluoropyridin-3-yl)-1H-pyrazol-3-yl)-4-methyl-5-oxopyrrolidine-3-carboxamide] | 14
3 | C[C@H]1C(=O)NC[C@@H]1C(=O)Nc1cc(-c2cc(F)cc(OC(F)(F)F)c2)n(-c2cncc(C(F)(F)F)c2)n1 [Example 3] | 8.6
4 | C[C@H]1C(=O)NC[C@@H]1C(=O)Nc1cc(-c2cc(F)cc(OC(C)(C)C)c2)n(-c2cnccn2)n1 [Example 4] | 23
5 | C[C@H]1C(=O)NC[C@@H]1C(=O)Nc1cc(-c2cccc(OC(F)(F)F)c2)n(-c2cncc(F)c2)n1 [Example 5] | 22
6 | C[C@H]1C(=O)NC[C@@H]1C(=O)Nc1cc(-c2cccc(OC(F)(F)F)c2)n(-c2cncc(Cl)c2)n1 [Example 6] | 9
7 | C[C@H]1C(=O)NC[C@@H]1C(=O)Nc1cc(-c2cccc(OC(F)(F)F)c2)n(-c2cncc(C(F)(F)F)c2)n1 [Example 7] | 17
8 | C[C@H]1C(=O)NC[C@@H]1C(=O)Nc1cc(-c2cc(F)cc(OC(C)(C)C(F)(F)F)c2)n(-c2ccnc(C(F)(F)F)n2)n1 [Example 9] | 73
9 | C[C@H]1C(=O)NC[C@@H]1C(=O)Nc1cc(-c2cc(F)cc(OC(C)(C)C(F)(F)F)c2)n(-c2cncc(C(F)(F)F)c2)n1 [Example 10] | 1.2
10 | C[C@H]1C(=O)NC[C@@H]1C(=O)Nc1cc(-c2cc(F)cc(OC(C)(C)C(F)(F)F)c2)n(-c2cccnc2C#N)n1 [Example 11] | 8.4
11 | C[C@H]1C(=O)NC[C@@H]1C(=O)Nc1cc(-c2cc(F)cc(OC(C)(C)C(F)(F)F)c2)n(-c2cccnc2C(F)(F)F)n1 [Example 12] | 4.3
12 | C[C@H]1C(=O)NC[C@@H]1C(=O)Nc1cc(-c2cc(F)cc(OC(C)(C)C(F)(F)F)c2)n(-c2cnccc2C(F)(F)F)n1 [Example 13] | 2.9
13 | C[C@H]1C(=O)NC[C@@H]1C(=O)Nc1cc(-c2cc(F)cc(OC(C)(C)C(F)(F)F)c2)n(-c2cnccc2C#N)n1 [Example 14] | 3.7
14 | C[C@H]1C(=O)NC[C@@H]1C(=O)Nc1cc(-c2cc(F)cc(OC(C)(C)C(F)(F)F)c2)n(-c2cnc(C(F)(F)F)cn2)n1 [Example 15] | 6.1
15 | C[C@H]1C(=O)NC[C@@H]1C(=O)Nc1cc(-c2cc(F)cc(OC(C)(C)C(F)(F)F)c2)n(-c2nccc(C(F)(F)F)n2)n1 [Example 16] | 83
16 | C[C@H]1C(=O)NC[C@@H]1C(=O)Nc1cc(-c2cc(F)cc(OC(C)(C)C(F)(F)F)c2)n(-c2cncc(Cl)c2)n1 [Example 17] | 1.3
17 | C[C@H]1C(=O)NC[C@@H]1C(=O)Nc1cc(-c2cc(F)cc(OC(C)(C)C(F)(F)F)c2)n(-c2cncc(C(F)(F)F)n2)n1 [Example 18] | 29
18 | C[C@H]1C(=O)NC[C@@H]1C(=O)Nc1cc(-c2cc(F)cc(OC(C)(C)C(F)(F)F)c2)n(-c2nccnc2C(F)(F)F)n1 [Example 19] | 29
19 | C[C@H]1C(=O)NC[C@@H]1C(=O)Nc1cc(-c2cc(F)cc(OC(C)(C)C(F)(F)F)c2)n(-c2ccc(C(F)(F)F)nc2)n1 [Example 20] | 1.2
20 | C[C@H]1C(=O)NC[C@@H]1C(=O)Nc1cc(-c2cc(F)cc(OC(C)(C)C(F)(F)F)c2)n(-c2cncc(F)c2)n1 [Example 21] | 1.2
21 | C[C@H]1C(=O)NC[C@@H]1C(=O)Nc1cc(-c2cc(F)cc(OC(C)(C)C(F)(F)F)c2)n(-c2cncnc2)n1 [Example 22] | 3.4
22 | C[C@H]1C(=O)NC[C@@H]1C(=O)Nc1cc(-c2cc(F)cc(OC(C)(C)C(F)(F)F)c2)n(-c2cnccn2)n1 [Example 23] | 11
23 | C[C@H]1C(=O)NC[C@@H]1C(=O)Nc1cc(-c2cc(F)cc(OC(C)(C)C(F)(F)F)c2)n(-c2ccc(C(F)(F)F)cn2)n1 [Example 24] | 5.3

Second part, the compound after the results:

Row | IC50 [nM] | SMILES
24 | 5.7 | C[C@H]1C(=O)NC[C@@H]1C(=O)Nc1cc(-c2cc(F)cc(OCC(F)(F)F)c2)n(-c2cnc(C(F)(F)F)nc2)n1 [Example 25]
25 | 47 | C[C@H]1C(=O)NC[C@@H]1C(=O)Nc1cc(-c2cccc(OC(F)(F)F)c2)n(-c2cnc(C(F)(F)F)nc2)n1 [Example 26]
26 | 30 | C[C@H]1C(=O)NC[C@@H]1C(=O)Nc1cc(-c2cc(F)cc(OC(F)(F)F)c2)n(-c2cnc(C(F)(F)F)nc2)n1 [Example 27]
27 | 7.2 | C[C@H]1C(=O)NC[C@@H]1C(=O)Nc1cc(-c2cc(F)cc(OC(F)(F)F)c2)n(-c2ccc(C(F)(F)F)nc2)n1 [Example 28]
28 | 52 | C[C@H]1C(=O)NC[C@@H]1C(=O)Nc1cc(-c2cc(F)cc(OC(F)(F)F)c2)n(-c2cncnc2)n1 [Example 29]
29 | 2.7 | C[C@H]1C(=O)NC[C@@H]1C(=O)Nc1cc(-c2cc(F)cc(OC(F)(F)F)c2)n(-c2cncc(Cl)c2)n1 [Example 30]
30 | 5.7 | C[C@H]1C(=O)NC[C@@H]1C(=O)Nc1cc(-c2cc(F)cc(OCC(F)(F)F)c2)n(-c2cncc(C(F)(F)F)c2)n1 [Example 31]
31 | 69 | C[C@H]1C(=O)NC[C@@H]1C(=O)Nc1cc(-c2cc(F)cc(OCC(F)(F)F)c2)n(-c2cncnc2)n1 [Example 32]
32 | 5.9 | C[C@H]1C(=O)NC[C@@H]1C(=O)Nc1cc(-c2cc(F)cc(OCC(F)(F)F)c2)n(-c2ccc(C(F)(F)F)nc2)n1 [Example 33]
33 | 9.8 | C[C@H]1C(=O)NC[C@@H]1C(=O)Nc1cc(-c2cc(F)cc(OCC(F)(F)F)c2)n(-c2cncc(F)c2)n1 [Example 34]
34 | 4.6 | C[C@H]1C(=O)NC[C@@H]1C(=O)Nc1cc(-c2cc(F)cc(OCC(F)(F)F)c2)n(-c2cncc(Cl)c2)n1 [Example 35]
35 | 1.9 | COc1ncc(-n2nc(NC(=O)[C@H]3CNC(=O)[C@@H]3C)cc2-c2cc(F)cc(OC(C)(C)C(F)(F)F)c2)cn1 [Example 36]
36 | 0.98 | C[C@H]1C(=O)NC[C@@H]1C(=O)Nc1cc(-c2cc(F)cc(OC(C)(C)C(F)(F)F)c2)n(-c2cnc(N(C)C)nc2)n1 [Example 37]
37 | 4 | Cc1ncc(-n2nc(NC(=O)[C@H]3CNC(=O)[C@@H]3C)cc2-c2cc(F)cc(OC(C)(C)C(F)(F)F)c2)cn1 [Example 38]

System: Escherichia coli WP2uvrA
Assay: Ames test (reverse mutation test), pre-incubation method, strain WP2uvrA
Format: cell-based
Conditions: positive control; S9 mix −; dose 0.01 μg/plate
From the text: Ames Test (Reverse Mutation Test)
Two plates per treatment were used.

Row | SMILES | Number of revertant colonies WP2uvrA
38 | NC(=O)C(=Cc1ccc([N+](=O)[O-])o1)c1ccco1 [AF-2, 2-(2-Furyl)-3-(5-nitro-2-furyl)acrylamide, reference compound] | 154
